In ChEMBL document CHEMBL4043296 (J Med Chem, 2018):
Converted amounts (≈) assume the structure as drawn.

Experiments:
D(4) dopamine receptor = target: T1, D(4) dopamine receptor (Homo sapiens, UniProt P21917); experiment: Antagonist activity at human SP/Myc epitope-tagged dopamine D4 receptor expressed in HEK293T cells assessed as inhibition of dopamine-induced mVenus-fused beta-arrestin2 recruitment preincubated for 15 mins followed by dopamine induction measured after 2 mins by BRET assay; assay type: cell-based, HEK-293T
T1 sequence (P21917 whole entry): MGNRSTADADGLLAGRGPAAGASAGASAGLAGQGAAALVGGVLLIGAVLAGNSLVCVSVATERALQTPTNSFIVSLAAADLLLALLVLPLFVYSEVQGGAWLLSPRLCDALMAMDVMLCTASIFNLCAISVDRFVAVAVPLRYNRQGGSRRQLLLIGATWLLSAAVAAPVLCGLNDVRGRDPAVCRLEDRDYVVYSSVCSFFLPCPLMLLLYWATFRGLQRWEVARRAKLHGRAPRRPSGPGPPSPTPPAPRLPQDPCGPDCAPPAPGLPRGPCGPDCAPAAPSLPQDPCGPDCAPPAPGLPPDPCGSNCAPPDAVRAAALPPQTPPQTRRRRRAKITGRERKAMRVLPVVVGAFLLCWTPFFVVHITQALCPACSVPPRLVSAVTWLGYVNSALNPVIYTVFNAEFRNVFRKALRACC

Homo sapiens = organism: Homo sapiens; experiment: Selectivity ratio of Ki for human dopamine D2 receptor to Ki for human dopamine D4 receptor
D(3) dopamine receptor = D(3) dopamine receptor (Homo sapiens, UniProt P35462); experiment: Displacement of [3H]N-methylspiperone from human dopamine D3 receptor expressed in HEK293 cell membranes after 1 hr by scintillation counting method
D(3) dopamine receptor, sequence (P35462 whole entry): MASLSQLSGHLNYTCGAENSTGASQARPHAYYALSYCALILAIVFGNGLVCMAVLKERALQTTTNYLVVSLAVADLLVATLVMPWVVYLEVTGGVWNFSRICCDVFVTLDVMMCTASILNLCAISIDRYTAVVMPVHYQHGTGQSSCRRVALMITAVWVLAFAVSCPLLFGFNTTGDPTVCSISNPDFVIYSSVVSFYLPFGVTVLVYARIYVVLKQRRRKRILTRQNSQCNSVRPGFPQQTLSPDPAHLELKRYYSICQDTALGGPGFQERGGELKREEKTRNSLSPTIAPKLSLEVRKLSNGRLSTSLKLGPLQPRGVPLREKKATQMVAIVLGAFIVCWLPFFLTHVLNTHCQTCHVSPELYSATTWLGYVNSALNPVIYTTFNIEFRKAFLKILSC

D(2) dopamine receptor = D(2) dopamine receptor (Homo sapiens, UniProt P14416); experiment: Displacement of [3H]N-methylspiperone from human dopamine D2 receptor expressed in HEK293 cell membranes after 1 hr by scintillation counting method
D(2) dopamine receptor, sequence (P14416 whole entry): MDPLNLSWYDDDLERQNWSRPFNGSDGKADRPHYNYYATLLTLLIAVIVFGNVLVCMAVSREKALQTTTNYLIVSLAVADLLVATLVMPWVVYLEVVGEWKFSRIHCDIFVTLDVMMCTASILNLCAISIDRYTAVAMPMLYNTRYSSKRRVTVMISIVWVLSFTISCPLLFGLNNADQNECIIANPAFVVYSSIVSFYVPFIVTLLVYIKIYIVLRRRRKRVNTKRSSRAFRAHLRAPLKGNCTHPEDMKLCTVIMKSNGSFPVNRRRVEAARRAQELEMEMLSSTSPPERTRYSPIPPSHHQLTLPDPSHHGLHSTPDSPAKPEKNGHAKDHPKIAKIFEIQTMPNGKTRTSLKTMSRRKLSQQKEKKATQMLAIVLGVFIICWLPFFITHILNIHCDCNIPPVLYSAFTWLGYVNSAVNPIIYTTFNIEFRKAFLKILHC

[1] = target: T2, Alpha-1A adrenergic receptor (Homo sapiens, UniProt P35348); experiment: Displacement of [3H]prazosin from human recombinant alpha-1A adrenergic receptor expressed in CHO cell membranes after 30 mins by liquid scintillation counting method
T2 sequence (P35348 whole entry): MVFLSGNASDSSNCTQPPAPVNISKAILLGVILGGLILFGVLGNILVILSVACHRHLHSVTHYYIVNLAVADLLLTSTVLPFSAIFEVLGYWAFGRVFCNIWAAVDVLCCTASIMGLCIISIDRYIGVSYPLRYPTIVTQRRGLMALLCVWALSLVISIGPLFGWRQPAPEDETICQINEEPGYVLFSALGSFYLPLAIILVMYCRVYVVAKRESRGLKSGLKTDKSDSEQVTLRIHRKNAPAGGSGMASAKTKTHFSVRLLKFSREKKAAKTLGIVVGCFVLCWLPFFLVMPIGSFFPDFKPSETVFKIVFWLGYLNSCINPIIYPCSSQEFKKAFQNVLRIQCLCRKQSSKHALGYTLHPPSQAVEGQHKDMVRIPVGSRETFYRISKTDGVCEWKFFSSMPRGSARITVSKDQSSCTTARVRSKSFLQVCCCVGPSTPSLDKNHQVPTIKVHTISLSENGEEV

[2] = Intrinsic clearance in mouse liver microsomes assessed per mg of protein at 0.5 uM preincubated for 30 mins followed by NADPH addition measured after 30 mins by HPLC-MS/MS method; assay type: ADME, microsome; settings: read-out: CLH
[3] = Kinetic solubility of the compound at pH 7.4 after 24 hrs by UPLC/UV/TOF-MS method; assay type: physicochemical; settings: buffer, read-out: Kinetic_solubility
[4] = target: T3, Muscarinic acetylcholine receptor M4 (Homo sapiens, UniProt P08173); experiment: Displacement of [3H]NMS from human muscarinic M4 receptor expressed in CHO cell membranes after 2 hrs by liquid scintillation counting method
T3 sequence (P08173 whole entry): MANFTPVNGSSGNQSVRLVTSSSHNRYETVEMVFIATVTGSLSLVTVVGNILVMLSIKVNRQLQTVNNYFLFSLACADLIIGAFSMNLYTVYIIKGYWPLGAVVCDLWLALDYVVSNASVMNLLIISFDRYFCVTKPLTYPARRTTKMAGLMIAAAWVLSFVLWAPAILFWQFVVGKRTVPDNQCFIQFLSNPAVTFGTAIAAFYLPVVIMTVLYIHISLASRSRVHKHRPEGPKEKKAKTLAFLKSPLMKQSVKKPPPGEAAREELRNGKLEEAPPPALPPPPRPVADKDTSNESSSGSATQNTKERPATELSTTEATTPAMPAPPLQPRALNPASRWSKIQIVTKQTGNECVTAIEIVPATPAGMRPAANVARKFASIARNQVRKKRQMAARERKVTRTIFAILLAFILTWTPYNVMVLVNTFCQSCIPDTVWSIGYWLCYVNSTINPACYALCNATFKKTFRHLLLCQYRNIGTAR

[5] = Fraction unbound in human plasma at 0.5 uM by equilibrium dialysis method; assay type: ADME, cell-free
[6] = target: T4, Muscarinic acetylcholine receptor M1 (Homo sapiens, UniProt P11229); experiment: Agonist activity at human SP/Myc epitope-tagged muscarinic M1 receptor expressed in HEK293T cells assessed as RLuc8-fused Galphaq activation after 2 mins by BRET assay; assay type: cell-based, HEK-293T
T4 sequence (P11229 whole entry): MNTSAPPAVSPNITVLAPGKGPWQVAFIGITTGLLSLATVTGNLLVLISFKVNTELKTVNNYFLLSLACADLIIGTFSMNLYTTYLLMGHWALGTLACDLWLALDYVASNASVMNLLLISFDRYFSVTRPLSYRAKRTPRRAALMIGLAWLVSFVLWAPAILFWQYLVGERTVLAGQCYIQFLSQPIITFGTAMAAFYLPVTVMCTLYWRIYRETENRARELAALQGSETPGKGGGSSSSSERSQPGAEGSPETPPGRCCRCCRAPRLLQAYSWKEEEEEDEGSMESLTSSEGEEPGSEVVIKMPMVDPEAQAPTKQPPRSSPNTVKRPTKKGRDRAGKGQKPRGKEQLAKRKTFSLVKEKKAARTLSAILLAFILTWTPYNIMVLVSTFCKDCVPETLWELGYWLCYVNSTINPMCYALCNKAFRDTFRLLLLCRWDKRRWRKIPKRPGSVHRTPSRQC

[7] = target: T5, Muscarinic acetylcholine receptor M4 (Homo sapiens) (UniProt P08173); experiment: (§1) Antagonist activity at human SP/Myc epitope-tagged muscarinic M4 receptor expressed in HEK293T cells assessed as inhibition of carbachol-induced mVenus-fused beta-arrestin2 recruitment preincubated for 15 mins followed by carbachol induction measured after 2 mins by BRET assay; assay type: cell-based; settings: HEK-293T
T5 sequence (whole entry): T3 sequence (P08173 whole entry)

[8] = target: T3, Muscarinic acetylcholine receptor M4; experiment: as §1; assay type: cell-based, HEK-293T

| Compound | IC50 (D(4) dopamine receptor) [nM] | Ratio Ki (Homo sapiens) | Ki (D(3) dopamine receptor) [nM] | Ki (D(2) dopamine receptor) [nM] | Ki [1] [nM] | microsomal CLint at 0.5 µM [2] [µL/min/mg] | solubility kinetic at 24 h [3] [µM] | Ki [4] [µM] | fraction unbound at 0.5 µM [5] | EC50 [6] [nM] | Imax [7] [%] | IC50 [8] [µM] |
| --- | --- | --- | --- | --- | --- | --- | --- | --- | --- | --- | --- | --- |
| O=C1CCc2ccccc2N1CCCN1CCN(c2ccccc2)CC1 | 0.724 | 380 | 1320 | 1100 | 53.7 | 159 | 520 (≈ 182 µg/mL) | 9.33 | 0.033 | 646 | 74 | 12 |
| O=C1CCc2ccccc2N1CCCN1CCC(Cc2ccccc2)CC1 | 575 | 724 | 1820 | 912 | 257 | 396 | 477 (≈ 173 µg/mL) | 0.724 | 0.057 | 186 | 72 | 1.23 |
